From patent publication US11932652B2, “Pyrrolidinyl urea derivatives and application thereof in TrkA-related diseases” (ZHANGZHOU PIEN TZE HUANG PHARMACEUTICAL CO., LTD., priority 2018, dated 2024)

Target: T1, CYP3A4 (Homo sapiens, UniProt P08684)
T1 construct: from tissue; host or cells: human liver microsomes
Assay: Cytochrome P450 isozyme inhibitory activity test, CYP3A4
Assay type: in vitro ADME
Details: heading: Cytochrome P450 isozyme IC50, CYP3A4; human liver microsome
Description: Determination of the inhibitory activity of the test compound on different human cytochrome P450 isozymes.
The test compound, standard inhibitor (100×final concentration), and a mixed substrate working solution were prepared; the microsome frozen in −80° C. refrigerator was thawed. 2 μL of the test compound and standard inhibitor solution was added to the corresponding wells, and at the same time 2 μL of the corresponding solvent was added to the non-inhibitor control wells (NIC) and blank control wells (Blank) wells; then 20 μL of mixed substrate solution was added to the corresponding wells, except for the Blank wells (20 μL of PB was added to the Blank wells); a human liver microsome solution was prepared (put back into the refrigerator immediately after using and marking the date), and then 158 μL of the human liver microsome solution was added to all wells; the above sample plate was placed in a 37° C. water bath for pre-incubation, then the coenzyme factor (NADPH) solution was prepared; 10 minutes later, 20 μL of the NADPH solution was added to all wells, and the sample plate was shaken well, placed in a 37° C. water bath and incubated for 10 minutes; at the corresponding time point, 400 μL of cold acetonitrile solution (internal standard: 200 ng/mL tolbutamide and labetalol) was added to terminate the reaction; the sample plate was evenly mixed, centrifuged at 4000 rpm for 20 minutes to precipitate proteins; 200 μL of the supernatant was added to 100 μL of water, shook well, and tested by LC/MS/MS.

T1 sequence (P08684 whole entry): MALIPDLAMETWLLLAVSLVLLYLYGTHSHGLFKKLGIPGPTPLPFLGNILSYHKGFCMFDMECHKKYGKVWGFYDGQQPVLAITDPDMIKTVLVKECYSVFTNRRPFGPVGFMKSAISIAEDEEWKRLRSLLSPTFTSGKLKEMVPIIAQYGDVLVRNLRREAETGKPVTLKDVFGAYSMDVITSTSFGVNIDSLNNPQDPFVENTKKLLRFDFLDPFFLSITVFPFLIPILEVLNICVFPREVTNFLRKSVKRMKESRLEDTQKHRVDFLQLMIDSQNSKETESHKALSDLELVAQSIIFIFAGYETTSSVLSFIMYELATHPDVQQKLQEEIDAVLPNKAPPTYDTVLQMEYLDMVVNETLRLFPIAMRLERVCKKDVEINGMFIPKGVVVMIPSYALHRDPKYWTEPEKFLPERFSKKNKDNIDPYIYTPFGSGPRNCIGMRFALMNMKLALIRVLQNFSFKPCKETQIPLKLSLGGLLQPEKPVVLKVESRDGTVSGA

IC50: > 50 µM
SMILES: COCCN1C[C@@H](n2ccc(F)c2)[C@H](NC(=O)Nc2c(C)c(-c3cnc(C4(F)COC4)nc3)nn2-c2ccccc2)C1 [Compound 7]
